According to patent US20250034169A1, “NOVEL PYRIMIDOPYRIDINE COMPOUND, PHARMACEUTICAL COMPOSITION THEREOF, AND USE THEREOF” (SUNSHINE LAKE PHARMA CO., LTD., priority 2021, published 2025):
Like-named read-outs stand apart in the source and are kept apart here.

Legend:
[1] = Stability in mouse liver microsomes; format: in vitro ADME; details: 1 μM; for CLHep / CLin vivo / ER: mouse liver microsomes; for ER: slow ER < 0.3, moderate 0.3 < ER < 0.7, fast ER > 0.7; for microsomal CLint at 1 μM / half-life at 1 μM: pH 7.4, mouse liver microsomes 0.5 mg/mL, 37° C.; for microsomal CLint at 1 μM: read-out: CLint; for half-life at 1 μM: read-out: T1/2
Description: (§1) Objective: To evaluate the stability of the compounds of the present invention in human and mouse liver microsomes by LC-MS/MS.
(§2) The ratio of the sample peak area to the internal standard peak area was obtained by LC/MS/MS, and the content of the compounds at 0 min was regarded as 100%, and the relative content of the compounds at each time point was calculated. The half-life of the compound was calculated by plotting the “relative content of the compound” against the “incubation time”, and the intrinsic clearance was calculated, in which the half-life and intrinsic clearance of the compound in human and mouse liver microsomes were determined in Table 3 and Table 4, respectively.

[2] = Stability in human liver microsomes; format: in vitro ADME; details: 1 μM; for CLHep / predicted in vivo clearance / ER: human liver microsomes; for ER: slow ER < 0.3, moderate 0.3 < ER < 0.7, fast ER > 0.7; for microsomal CLint at 1 μM / half-life at 1 μM: pH 7.4, human liver microsomes 0.5 mg/mL, 37° C.; for microsomal CLint at 1 μM: read-out: CLint; for half-life at 1 μM: read-out: T1/2
Description: as §1, §2

in vivo = test: in vivo; design: species or system BALB/c mice; details: BALB/c, mouse, 2 mg/kg
Description: The inventors performed a pharmacokinetic evaluation of the compounds of the present invention in mice.
The compound of the present invention was in the form of a solution of 5% DMSO+30% PEG400+65% Saline, 10% DMSO+10% Kolliphor HS15+80% Saline, 10% DMSO+89%(25% SBE-B-CD)+(2% HCl), 20% PEG400+80% sterilize water for injection or 10% DMA+10% HS15+30% PEG400+50% sterilize water for injection, the test animals were administered, and the animals were fasted for 12 h before administration, and water was free to drink. The test animals were administered intravenously at a dose of 2 mg/kg, blood (approximately 0.15 mL) was taken intravenously at the following time points after administration: 0.083 h, 0.25 h, 0.5 h, 1.0 h, 2.0 h, 5.0 h, 7.0 h, and 24 h, EDTA-K2 was pre-added as an anticoagulant in the blood collection tube, the blood samples were centrifuged at 12,000 rpm for 2 min, then plasma was collected and stored at −20° C. or −70° C.
The plasma samples collected above were treated (after the frozen plasma thawed at room temperature, vortexed for 15 s for mixing, 10-20 μL of plasma was taken and added with 120-150 μL of acetonitrile solution containing internal standard, the mixture was vortexed for 5 min for mixing, then centrifuged at 4,000 rpm for 5 min, 100 μL of supernatant was taken, and 120-150 μL of methanol/water (v/v=1/1) was added to mix), and the compound concentration in plasma was analyzed by LC-MS/MS. The pharmacokinetic parameters of the compounds of the present invention for intravenous administration in mice are shown in Table 5.

intracellular pERK = test: Inhibitory effect on intracellular pERK, In-Cell Western, AGS cells; format: cell-based; details: Homo sapiens, read-out: Inhibitory effect on intracellular pERK, IC50
KRAS G12D-GTP & SOS1 = KRAS G12D-GTP & SOS1 (Homo sapiens (Human), UniProt P01116, G12D); test: KRAS G12D/SOS1 binding experiment (HTRF); details: competitive binding
KRAS G12D-GTP & SOS1, sequence (P01116-2 other isoform, or with tags, fused parts or gaps G12D): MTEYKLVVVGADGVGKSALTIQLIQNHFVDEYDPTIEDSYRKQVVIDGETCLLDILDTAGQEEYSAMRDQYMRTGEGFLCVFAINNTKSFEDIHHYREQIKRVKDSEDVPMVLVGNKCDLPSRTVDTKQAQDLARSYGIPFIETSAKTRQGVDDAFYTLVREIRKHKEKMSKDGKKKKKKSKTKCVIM

KRAS G12D-GTP & cRAF = KRAS G12D-GTP & cRAF (Homo sapiens (Human), UniProt P01116, G12D); test: KRAS G12D/cRAF binding experiment (HTRF); details: competitive binding
KRAS G12D-GTP & cRAF, sequence (P01116-2 other isoform, or with tags, fused parts or gaps G12D): as above

Compound | CLHep [1] [mL/min/kg] | CLin vivo [1] [mL/min/kg] | ER [1] | microsomal CLint at 1 μM [1] [µL/min/mg] | half-life at 1 μM [1] [min] | CLHep [2] [mL/min/kg] | predicted in vivo clearance [2] [mL/min/kg] | ER [2] | microsomal CLint at 1 μM [2] [µL/min/mg] | half-life at 1 μM [2] [min] | also measured
C#Cc1c(F)ccc2cc(O)cc(-c3nc(C#C)c4c(N5CC6CCC(C5)N6)nc(OC[C@@]56CCCN5C[C@H](F)C6)nc4c3F)c12 [Compound 23] | 187.4 | 60.8 | 0.68 | 47.6 | 29.1 | 23.0 | 10.9 | 0.53 | 18.4 | 75.3 | AUC(0-inf) (in vivo; mice, intravenous, read-out: AUCINF): 2160 ng·h/mL; AUC(0-t) (in vivo; mice, intravenous, read-out: AUClast): 2140 ng·h/mL; clearance (in vivo; mice, intravenous, read-out: Cl): 16 mL/min/kg; Cmax (in vivo; mice, intravenous, read-out: Cmax): 3550 ng/mL; MRT last (in vivo; mice, intravenous, read-out: MRTlast): 42 min; half-life (in vivo; mice, intravenous, read-out: T1/2 (converted)): 50.4 min; Tmax (in vivo; mice, intravenous, read-out: Tmax): 4.98 min; Vd (in vivo; mice, intravenous, read-out: Vss): 0.69 L/kg; IC50 (intracellular pERK; AGS, 3 h): 0.6 nM
C#Cc1nc(-c2cc(O)cc3cccc(Cl)c23)c(F)c2nc(OC[C@@]34CCCN3C[C@H](F)C4)nc(N3CC4CCC(C3)N4)c12 [Compound 67] | 178.5 | 59.8 | 0.66 | 45.3 | 30.6 | 14.5 | 8.5 | 0.41 | 11.6 | 119 | IC50 (KRAS G12D-GTP & SOS1): 13.5 nM; IC50 (KRAS G12D-GTP & cRAF): 5.4 nM; AUC(0-inf) (in vivo; iv): 3230 ng·h/mL; AUC(0-t) (in vivo; iv): 3210 ng·h/mL; Cmax (in vivo; iv): 4300 ng/mL; MRT last (in vivo; iv): 45 min; Tmax (in vivo; iv): 4.98 min; Vd (in vivo; iv): 0.5 L/kg; clearance (in vivo; iv): 10 mL/min/kg; half-life (in vivo; iv): 52.2 min; IC50 (intracellular pERK; AGS cells, 3 h incubation, In-Cell Western): 0.4 nM
